According to ChEMBL document CHEMBL3525955, “Glucuronidation of the red clover isoflavone irilone by liver microsomes from different species and human UDP-glucuronosyltransferases” (Drug Metab Dispos, 2011):
pKi: −log10 of the molar value.

How the values were obtained:
[1] = Drug metabolism in pig liver microsomes assessed as substrate inhibition of IRI-O-5-monoglucuronide formation incubated for 5 mins prior to UDPGA addition measured after 90 mins by Eadie-Hoftsee plot analysis; assay type: ADME, Sus scrofa
[2] = target: T1, UDP-glucuronosyltransferase 1A7 (Homo sapiens, UniProt Q9HAW7); experiment: Substrate inhibition of human recombinant UGT1A7 assessed as IRI-O-5-monoglucuronide formation incubated for 5 mins prior to UDPGA addition measured after 90 mins by Eadie-Hoftsee plot analysis; assay type: ADME
T1 sequence (Q9HAW7 whole entry): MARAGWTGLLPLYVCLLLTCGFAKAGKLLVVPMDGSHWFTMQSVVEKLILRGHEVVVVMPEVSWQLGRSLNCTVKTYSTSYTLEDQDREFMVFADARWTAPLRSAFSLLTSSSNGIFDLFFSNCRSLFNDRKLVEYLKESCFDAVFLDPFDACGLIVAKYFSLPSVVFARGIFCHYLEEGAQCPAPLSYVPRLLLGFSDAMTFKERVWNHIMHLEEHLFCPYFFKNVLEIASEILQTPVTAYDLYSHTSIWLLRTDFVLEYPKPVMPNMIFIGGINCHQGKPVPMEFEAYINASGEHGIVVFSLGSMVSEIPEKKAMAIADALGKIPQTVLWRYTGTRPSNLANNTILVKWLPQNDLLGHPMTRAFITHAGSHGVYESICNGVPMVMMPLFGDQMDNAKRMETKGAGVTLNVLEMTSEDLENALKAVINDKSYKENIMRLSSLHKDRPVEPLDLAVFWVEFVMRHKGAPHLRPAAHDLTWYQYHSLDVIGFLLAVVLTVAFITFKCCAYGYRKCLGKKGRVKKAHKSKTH

[3] = target: T2, UDP-glucuronosyltransferase 1A9 (Homo sapiens, UniProt O60656); experiment: Drug metabolism assessed as human recombinant UGT1A9-mediated irilone-O-5-monoglucuronide formation incubated for 5 mins prior to UDPGA addition measured after 90 mins by HPLC-DAD analysis; assay type: ADME; conditions: recombinant enzyme, 1.5 h
T2 sequence (O60656 whole entry): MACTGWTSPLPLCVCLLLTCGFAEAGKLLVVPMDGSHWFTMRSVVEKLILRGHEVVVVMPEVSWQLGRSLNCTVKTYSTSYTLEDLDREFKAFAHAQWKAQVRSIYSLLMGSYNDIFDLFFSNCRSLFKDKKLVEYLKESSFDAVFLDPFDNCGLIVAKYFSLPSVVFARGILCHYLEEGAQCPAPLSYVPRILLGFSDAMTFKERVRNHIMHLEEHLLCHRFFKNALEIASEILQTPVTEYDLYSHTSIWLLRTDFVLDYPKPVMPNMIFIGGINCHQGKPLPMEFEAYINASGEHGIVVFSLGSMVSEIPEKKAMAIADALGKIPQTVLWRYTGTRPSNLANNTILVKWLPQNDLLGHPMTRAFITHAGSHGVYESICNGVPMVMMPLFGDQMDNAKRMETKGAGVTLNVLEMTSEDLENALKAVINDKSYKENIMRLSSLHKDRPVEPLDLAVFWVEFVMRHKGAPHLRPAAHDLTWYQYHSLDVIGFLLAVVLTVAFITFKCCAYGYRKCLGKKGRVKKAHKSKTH

[4] = target: T3, UDP-glucuronosyltransferase 1A1 (Homo sapiens, UniProt P22309); experiment: Drug metabolism assessed as human recombinant UGT1A1-mediated irilone-O-5-monoglucuronide formation at 25 uM incubated for 5 mins prior to UDPGA addition measured after 90 mins by HPLC-DAD analysis; assay type: ADME; conditions: recombinant enzyme, 1.5 h
T3 sequence (P22309 whole entry): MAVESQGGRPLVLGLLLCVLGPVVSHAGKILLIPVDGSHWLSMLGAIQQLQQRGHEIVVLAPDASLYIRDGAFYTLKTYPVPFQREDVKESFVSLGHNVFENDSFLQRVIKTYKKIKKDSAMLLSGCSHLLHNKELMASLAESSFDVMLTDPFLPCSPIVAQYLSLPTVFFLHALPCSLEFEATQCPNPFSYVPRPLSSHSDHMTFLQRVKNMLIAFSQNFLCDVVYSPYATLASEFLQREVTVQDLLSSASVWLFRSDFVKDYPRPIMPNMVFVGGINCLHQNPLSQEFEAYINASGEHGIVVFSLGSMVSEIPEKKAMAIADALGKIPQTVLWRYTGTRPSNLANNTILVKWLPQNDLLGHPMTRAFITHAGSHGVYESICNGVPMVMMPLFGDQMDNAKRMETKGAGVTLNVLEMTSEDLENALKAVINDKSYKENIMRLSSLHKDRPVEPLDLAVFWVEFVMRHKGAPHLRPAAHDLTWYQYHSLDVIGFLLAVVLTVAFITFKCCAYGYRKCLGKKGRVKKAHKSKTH

[5] = target: T1, UDP-glucuronosyltransferase 1A7; experiment: Drug metabolism assessed as human recombinant UGT1A7-mediated irilone-O-5-monoglucuronide formation at 25 uM incubated for 5 mins prior to UDPGA addition measured after 90 mins by HPLC-DAD analysis; assay type: ADME; conditions: recombinant enzyme, 1.5 h
[6] = system: Liver microsome; experiment: Drug metabolism in Sprague-Dawley rat liver microsomes assessed as IRI-O-4'-monoglucuronide formation incubated for 5 mins prior to UDPGA addition measured after 90 mins by Eadie-Hoftsee plot analysis; assay type: ADME; conditions: 1.5 h
[7] = target: T4, UDP-glucuronosyltransferase 1A8 (Homo sapiens, UniProt Q9HAW9); experiment: Drug metabolism assessed as human recombinant UGT1A8-mediated irilone-O-5-monoglucuronide formation at 25 uM incubated for 5 mins prior to UDPGA addition measured after 90 mins by HPLC-DAD analysis; assay type: ADME; conditions: recombinant enzyme, 1.5 h
T4 sequence (Q9HAW9 whole entry): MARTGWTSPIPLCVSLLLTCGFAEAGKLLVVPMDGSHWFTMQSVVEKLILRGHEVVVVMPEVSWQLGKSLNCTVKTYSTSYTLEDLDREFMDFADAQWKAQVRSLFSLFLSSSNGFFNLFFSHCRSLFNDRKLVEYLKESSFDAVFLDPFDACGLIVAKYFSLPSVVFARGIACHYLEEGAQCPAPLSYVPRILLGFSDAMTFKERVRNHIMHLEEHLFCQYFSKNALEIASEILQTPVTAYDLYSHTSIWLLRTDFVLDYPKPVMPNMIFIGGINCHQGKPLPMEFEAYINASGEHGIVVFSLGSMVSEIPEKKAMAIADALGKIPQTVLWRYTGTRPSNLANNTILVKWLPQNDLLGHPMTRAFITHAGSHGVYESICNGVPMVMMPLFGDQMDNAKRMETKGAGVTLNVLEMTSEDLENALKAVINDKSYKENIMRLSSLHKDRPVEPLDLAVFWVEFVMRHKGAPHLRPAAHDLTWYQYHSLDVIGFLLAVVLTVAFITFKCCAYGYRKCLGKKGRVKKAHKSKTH

[8] = target: T4, UDP-glucuronosyltransferase 1A8; experiment: Substrate inhibition of human recombinant UGT1A8 assessed as IRI-O-4'-monoglucuronide formation incubated for 5 mins prior to UDPGA addition measured after 90 mins by Eadie-Hoftsee plot analysis; assay type: ADME

## O=c1c(-c2ccc(O)cc2)coc2cc3c(c(O)c12)OCO3
[1]
  pKi: 3.74
[2]
  pKi: 4.00
[3]
  Drug metabolism: metabolite_detected
[4]
  Drug metabolism: metabolite_detected
[5]
  Drug metabolism: metabolite_detected
[6]
  Km: 124 µM
  Vmax: 1.33 nmol/mg/min
[7]
  Drug metabolism: metabolite_detected
[8]
  pKi: 4.63
